# Like-named read-outs stand apart in the source and are kept apart here.
# What was measured:
# γ-secretase = γ-secretase (Homo sapiens, UniProt P49768); assay: Aβ secretion by C99 cells (HEK293 stably expressing APP-C99), γ-secretase inhibitory effect, Aβ ELISA of culture supernatant; assay type: cell-based; conditions: for activity at 0.3 µM / activity at 1 µM / activity at 3 µM / activity at 10 µM / activity at 0.03 µM / activity at 0.1 µM: HEK293, 24 h; for activity at 0.3 µM: exposure 0.3 μmol/L; for activity at 1 µM: exposure 1 μmol/L; for activity at 3 µM: exposure 3 μmol/L; for activity at 10 µM: exposure 10 μmol/L; for activity at 0.03 µM: exposure 0.03 μmol/L; for activity at 0.1 µM: exposure 0.1 μmol/L; for inhibition at 0.3 µM / inhibition at 10 µM: HEK293, read-out: Aβ40 inhibitory rate (in terms of the inhibitory rate, from secretion rate); for inhibition at 0.3 µM: exposure concentration 0.3 μM; for inhibition at 10 µM: exposure concentration 10 μM
# Description: HEK293 cells (ATCC) were transfected with APP C99 pcDNA3.1 (the nucleotide sequence of its coding region is shown in SEQ ID NO: 1) (J. Biol. Chem., 2003, 278, 49448-49458). Cell strains (C99 cells) confirmed to stably express APP-C99 (artificial APP fragment that originally lacked a polypeptide portion to be cleaved by α- or β-secretase at the first stage in the two-stage reaction of Aβ production from APP) were used to study the γ-secretase inhibitory effects of four test substances (TLVM-5, TLVM-7, TLVM-8, and TLVM-9) in vitro.
# (§1) In the present test, a medium used for the C99 cells was 500 mL of a Dulbecco's Modified Eagle's Medium (DMEM, Sigma-Aldrich Corp.) supplemented with 55 ml of fetal bovine serum (Biosource), 5.5 ml of MEM non-essential amino acids (Gibco), and 5.5 ml of penicillin/streptomycin (Gibco).
# The C99 cells were suspended at a concentration of 5×10^4 cells/ml in the medium. The suspension was added at a concentration of 1 ml (5×10^4 cells)/well to a 24-well collagen plate (Akita Sumitomo Bakelite Co., Ltd.) and cultured for 3 days. Then, the medium in the wells was removed, and the wells were washed with a medium (1 ml/well). The medium was removed, and a fresh medium was then added thereto at a concentration of 0.4 ml/well. The cells were exposed to the test substances and positive controls and incubated for 24 hours, and the culture supernatants were collected. The positive controls used were L-685,458 (CALBIOCHEM) and Boc-Leu-Val-Met-Leu-OMe (hereinafter, referred to as LVML-1) disclosed in Example 1 of Patent Document 1 (WO03/091278). The exposure concentrations were set to four concentrations, 0.3, 1, 3, and 10 μmol/L, for all the test substances and the positive controls. The concentrations of Aβ (1-40) and Aβ (1-42) in the culture supernatants were measured using Human Amyloid β (1-40) (N) Assay Kit (L)-IBL and Human Amyloid β (1-42) (N) Assay Kit (L)-IBL (Immuno-Biological Laboratories, Co., Ltd.). The amounts of Aβ (1-40) and Aβ (1-42) secreted were calculated by subtracting the concentrations of Aβ (1-40) and Aβ (1-42) originally contained in the medium before the C99 cell inoculation, from the measured concentrations thereof, respectively. Moreover, when the Aβ secretion rate of a negative control (5% DMSO-containing medium, resulting in 1% DMSO at the final concentration) is defined as 100%, Aβ secretion rates at each concentration of the test substances and the positive controls were calculated.
# The TLVM-5, TLVM-7, TLVM-8, and TLVM-9 confirmed in Example 8 to have strong inhibitory activities against γ-secretase activities were subjected to an additional experiment at low concentrations (exposure concentrations were set to three concentrations, […], for the test substances and to four concentrations, 0.1, 0.3, 1, and 3 μmol/L, for the positive control).
# Moreover, Aβ secretion rates at two concentrations of the test substance that bracket the concentration at which Aβ secretion was inhibited by 50% (IC50) were used to calculate IC50 according to the following equation: IC50:10^[LOG(A/B)*(50−C)/(D−C)+LOG(B)],wherein
# A: of the two points that bracket 50% inhibition, the higher concentration of the test substance,
# B: of the two points that bracket 50% inhibition, the lower concentration of the test substance,
# C: secretion rate (%) at the concentration B, and
# D: secretion rate (%) at the concentration A.
# C99 cells = assay: Cytotoxicity on C99 cells, cell viability by Cell Counting Kit-8; assay type: cell-based, human; conditions: 24 h
# Method: The cytotoxicity of four test substances (TLVM-5, TLVM-7, TLVM-8, and TLVM-9) on the C99 cells was measured using a method shown below.
# as §1
# The C99 cells were suspended at a concentration of 0.75×10^5 cells/ml in the medium. The suspension was added at a concentration of 100 μL (0.75×10^4 cells)/well to a 96-well collagen plate (Akita Sumitomo Bakelite Co., Ltd.) and cultured for 2 days. Then, the medium (corresponding to 50 μL/well) in the wells was removed, and a fresh medium was added thereto at a concentration of 30 μL/well. […] Then, the cell viability was measured using Cell Counting Kit-8 (Dojindo Laboratories).
# [1] = Example 8, 24 h, read-out: Aβ [(1-40) + (1-42)] secretion rate of C99 cells
# [2] = Example 8, 24 h, read-out: Aβ (1-40) secretion rate of C99 cells
# [3] = Example 9 (low concentrations), read-out: Aβ (1-40) secretion rate of C99 cells
# [4] = Example 9, read-out: Aβ (1-42) secretion rate of C99 cells
# [5] = Example 9, read-out: Aβ [(1-40) + (1-42)] secretion rate of C99 cells
# [6] = Example 9, read-out: Aβ (1-40) secretion rate of C99 cells
# [7] = Example 8, 24 h, negative control = 100%, read-out: Aβ (1-40) secretion rate of C99 cells
# [8] = Example 8, 24 h, read-out: Aβ (1-42) secretion rate of C99 cells
smiles,measurement,setting,value
"CSCCC(NC(=O)C(NC(=O)C(CC(C)C)CC(O)C(NC(=O)OC(C)(C)C)C(C)O)C(C)C)C(=O)NCc1ccccc1 [TLVM-5, [5S-(tert-butoxycarbonylamino)-4R,6R-dihydroxy-2R-(2-methylpropyl)heptanoyl]-L-valyl-L-methionine benzylamide]",activity at 0.3 µM,γ-secretase; [1],14%
same,activity at 1 µM,γ-secretase; [2],5%
same,activity at 1 µM,γ-secretase; [1],8%
same,activity at 3 µM,γ-secretase; [2],4%
same,activity at 3 µM,γ-secretase; [1],7%
same,activity at 10 µM,γ-secretase; [2],≤ 3%
same,activity at 10 µM,γ-secretase; [1],6%
same,activity at 0.03 µM,γ-secretase; [3],100%
same,activity at 0.03 µM,γ-secretase; [4],131%
same,activity at 0.03 µM,γ-secretase; [5],101%
same,activity at 0.1 µM,γ-secretase; [6],39%
same,activity at 0.1 µM,γ-secretase; [4],74%
same,activity at 0.1 µM,γ-secretase; [5],40%
same,activity at 0.3 µM,γ-secretase; [6],15%
same,activity at 0.3 µM,γ-secretase; [4],43%
same,activity at 0.3 µM,γ-secretase; [5],16%
same,inhibition at 0.3 µM,γ-secretase,≥ 76%
same,inhibition at 10 µM,γ-secretase,≥ 97%
same,Cell viability of C99 cells,C99 cells; exposure 0.3 μmol/L,102%
same,Cell viability of C99 cells,C99 cells; exposure 1 μmol/L,109%
same,Cell viability of C99 cells,C99 cells; exposure 3 μmol/L,112%
same,Cell viability of C99 cells,C99 cells; exposure 10 μmol/L,104%
same,Cell viability of C99 cells,C99 cells; exposure 30 μmol/L,82%
same,Cell viability of C99 cells,C99 cells; exposure 100 μmol/L,46%
"CSCCC(NC(=O)C(NC(=O)C(CC(C)C)CC(O)C(NC(=O)OC(C)(C)C)C(C)O)C(C)C)C(=O)NCc1ccc(F)cc1 [TLVM-9, [5S-(tert-butoxycarbonylamino)-4R,6R-dihydroxy-2R-(2-methylpropyl)heptanoyl]-L-valyl-L-methionine 4-fluorobenzylamide]",activity at 0.3 µM,γ-secretase; [7],≤ 24%
same,activity at 0.3 µM,γ-secretase; [8],2%
same,activity at 0.3 µM,γ-secretase; [1],15%
same,activity at 1 µM,γ-secretase; [2],8%
same,activity at 1 µM,γ-secretase; [8],11%
same,activity at 1 µM,γ-secretase; [1],8%
same,activity at 3 µM,γ-secretase; [2],5%
same,activity at 3 µM,γ-secretase; [8],37%
same,activity at 3 µM,γ-secretase; [1],7%
same,activity at 10 µM,γ-secretase; [2],≤ 3%
same,activity at 10 µM,γ-secretase; [8],0%
same,activity at 10 µM,γ-secretase; [1],3%
same,activity at 0.03 µM,γ-secretase; [3],94%
same,activity at 0.03 µM,γ-secretase; [4],97%
same,activity at 0.03 µM,γ-secretase; [5],94%
same,activity at 0.1 µM,γ-secretase; [6],32%
same,activity at 0.1 µM,γ-secretase; [4],67%
same,activity at 0.1 µM,γ-secretase; [5],33%
same,activity at 0.3 µM,γ-secretase; [6],17%
same,activity at 0.3 µM,γ-secretase; [4],49%
same,activity at 0.3 µM,γ-secretase; [5],18%
same,inhibition at 0.3 µM,γ-secretase,≥ 76%
same,inhibition at 10 µM,γ-secretase,≥ 97%
same,Cell viability of C99 cells,C99 cells; exposure 0.3 μmol/L,104%
same,Cell viability of C99 cells,C99 cells; exposure 1 μmol/L,106%
same,Cell viability of C99 cells,C99 cells; exposure 3 μmol/L,106%
same,Cell viability of C99 cells,C99 cells; exposure 10 μmol/L,105%
same,Cell viability of C99 cells,C99 cells; exposure 30 μmol/L,93%
same,Cell viability of C99 cells,C99 cells; exposure 100 μmol/L,57%
"CSCCC(NC(=O)C(NC(=O)C(CC(C)C)CC(O)C(NC(=O)OC(C)(C)C)C(C)O)C(C)C)C(=O)NC(C)c1ccccc1 [TLVM-8, [5S-(tert-butoxycarbonylamino)-4R,6R-dihydroxy-2R-(2-methylpropyl)heptanoyl]-L-valyl-L-methionine (S)-α-methylbenzylamide]",activity at 0.3 µM,γ-secretase; [8],7%
same,activity at 0.3 µM,γ-secretase; [1],7%
same,activity at 1 µM,γ-secretase; [2],1%
same,activity at 1 µM,γ-secretase; [8],11%
same,activity at 1 µM,γ-secretase; [1],1%
same,activity at 3 µM,γ-secretase; [2],2%
same,activity at 3 µM,γ-secretase; [8],61%
same,activity at 3 µM,γ-secretase; [1],5%
same,activity at 10 µM,γ-secretase; [8],0%
same,activity at 10 µM,γ-secretase; [1],1%
same,activity at 0.03 µM,γ-secretase; [3],53%
same,activity at 0.03 µM,γ-secretase; [4],71%
same,activity at 0.03 µM,γ-secretase; [5],54%
same,activity at 0.1 µM,γ-secretase; [6],16%
same,activity at 0.1 µM,γ-secretase; [4],52%
same,activity at 0.1 µM,γ-secretase; [5],17%
same,activity at 0.3 µM,γ-secretase; [6],7%
same,activity at 0.3 µM,γ-secretase; [4],33%
same,activity at 0.3 µM,γ-secretase; [5],8%
same,inhibition at 0.3 µM,γ-secretase,≥ 76%
same,inhibition at 10 µM,γ-secretase,≥ 97%
same,Cell viability of C99 cells,C99 cells; exposure 0.3 μmol/L,101%
same,Cell viability of C99 cells,C99 cells; exposure 1 μmol/L,102%
same,Cell viability of C99 cells,C99 cells; exposure 3 μmol/L,101%
same,Cell viability of C99 cells,C99 cells; exposure 10 μmol/L,98%
same,Cell viability of C99 cells,C99 cells; exposure 30 μmol/L,91%
same,Cell viability of C99 cells,C99 cells; exposure 100 μmol/L,8%
"CCCCNC(=O)C(CCSC)NC(=O)C(NC(=O)C(CC(C)C)CC(O)C(NC(=O)OC(C)(C)C)C(C)O)C(C)C [TLVM-7, [5S-(tert-butoxycarbonylamino)-4R,6R-dihydroxy-2R-(2-methylpropyl)heptanoyl]-L-valyl-L-methionine n-butylamide]",activity at 0.3 µM,γ-secretase; [7],≤ 24%
same,activity at 0.3 µM,γ-secretase; [8],15%
same,activity at 0.3 µM,γ-secretase; [1],23%
same,activity at 1 µM,γ-secretase; [2],8%
same,activity at 1 µM,γ-secretase; [8],55%
same,activity at 1 µM,γ-secretase; [1],10%
same,activity at 3 µM,γ-secretase; [2],1%
same,activity at 3 µM,γ-secretase; [8],67%
same,activity at 3 µM,γ-secretase; [1],4%
same,activity at 10 µM,γ-secretase; [2],≤ 3%
same,activity at 10 µM,γ-secretase; [8],0%
same,activity at 10 µM,γ-secretase; [1],2%
same,activity at 0.03 µM,γ-secretase; [3],124%
same,activity at 0.03 µM,γ-secretase; [4],156%
same,activity at 0.03 µM,γ-secretase; [5],126%
same,activity at 0.1 µM,γ-secretase; [6],42%
same,activity at 0.1 µM,γ-secretase; [4],94%
same,activity at 0.1 µM,γ-secretase; [5],44%
same,activity at 0.3 µM,γ-secretase; [6],13%
same,activity at 0.3 µM,γ-secretase; [4],33%
same,activity at 0.3 µM,γ-secretase; [5],14%
same,inhibition at 0.3 µM,γ-secretase,≥ 76%
same,inhibition at 10 µM,γ-secretase,≥ 97%
same,Cell viability of C99 cells,C99 cells; exposure 0.3 μmol/L,92%
same,Cell viability of C99 cells,C99 cells; exposure 1 μmol/L,105%
same,Cell viability of C99 cells,C99 cells; exposure 3 μmol/L,96%
same,Cell viability of C99 cells,C99 cells; exposure 10 μmol/L,102%
same,Cell viability of C99 cells,C99 cells; exposure 30 μmol/L,91%
same,Cell viability of C99 cells,C99 cells; exposure 100 μmol/L,96%

# From patent publication US8501813B2, “γ-secretase inhibitor” (Kabushiki Kaisha Yakult Honsha, priority 2007, dated 2013)
